Measurements published in patent US20160205931A1, “SEX PHEROMONE DERIVATIVES, AND METHODS AND USES THEREOF” (Her Majesty the Queen in Right of Canada, as rep. by the …, priority 2015, published 2016).

What was measured:
Release rate of lures = assay type: physicochemical; details: 25° C.
Experimental: Traps were baited with one of three treatments: 1) (3Z)-hexenol alone; 2) 3.0 mg dose of (3Z)-lactone+(3Z)-hexenol; or 3) dodecan-12-olide+(3Z)-hexenol. The dodecan-12-olide dose was 3.0 mg or 5.0 mg. A higher dose of the analog was used to attempt to increase its effect on captures of EAB relative to the (3Z)-lactone. (3Z)-Lactone and the analog were each loaded onto rubber septa lures (Wheaton Scientific, Millville, N.J.). (3Z)-Hexenol lures were obtained from Synergy Semiochemicals. Release rates of the 3.0 mg (3Z)-lactone, 3.0 mg and 5.0 mg dodecan-12-olide lures, and (3Z)-hexenol were ˜66 μg/d, ˜60 μg/d and ˜80 μg/d. These values were determined as in Silk et al. 2011, and 50-100 mg/d (by weight loss), respectively, at 25° C. The (3Z)-lactone and analog lures were estimated to maintain sustained and almost constant release rates for a minimum of 6 wk, and thus were not replaced during the experiment. Similarly, (3Z)-hexenol lures were not replaced during the experiment.

[1] = test system: male and female EAB antennae; test: Electroantennography (EAG), puff technique; design: species or system Agrilus planipennis; details: for electroantennogram activity with male or female EABs: compared with controls / with the (3Z)- and (3E)-lactones
Experimental: Electroantennogram analyses (EAG) were conducted using methods and equipment generally described by Silk et al. in 2007 (Silk P J, et al (2007) Evidence for a male-produced pheromone in Tetropium fuscum (F.) (Coleoptera: Cerambycidae). Naturwissenschaften 94: 697-701). Antennae were excised close to the head and mounted using electrode gel (Spectra 360 electrode gel; Parker, Fairfield, N.J., USA) on an EAG probe (gold) for electrical contact. EAG signals were recorded using Syntech recording and analysis software v. 2.6 (Syntech, Hilversum, The Netherlands).
The (3Z)- and (3E)-lactones, and dodecan-12-olide were tested using the puff technique described by Silk et al. in 2011 (Silk P J, Ryall K, Mayo P, Lemay M, Grant G, Crook D, Cossé A, Fraser I, Sweeney J D, Lyons D B, Pitt D, Scarr T, Magee D (2011) Evidence for a volatile pheromone in Agrilus planipennis Fairmaire (Coleoptera: Buprestidae) that increases attraction to a host foliar volatile. Env Entomol 40: 904-916). Briefly: two microliters of serially diluted solutions (dichloromethane; DCM) of synthetic compounds were applied to filter paper strips (0.5 cm×5 cm, Whatman No. 1). The filter paper strips were placed in 14 cm long Pasteur pipettes, hereafter referred to as stimulus cartridges, after 5 min at room temperature. The stimulus dose tested was 1 μg. Male and female antennae were exposed to single 0.2 s puffs of odor-bearing air at 5 ml/s by placing the tip of a stimulus cartridge into a hole of a glass tube (0.7 cm ID×20 cm), 10 cm from the outlet and 11 cm away from the antennal preparation. Airflow through the glass tube was passed through a water bubbler and set at 10 ml/s. Each antennal preparation was tested with freshly prepared sets of stimuli cartridges using ˜6 male and ˜10 female antennae/treatment and used once for each treatment.
(§1) For the EAG results, male and female EAG responses were submitted to analysis of variance (ANOVA) and mean responses to each of the tested compounds separated using Tukey's test (P<0.05). […] Finally, in the trapping study, numbers of male and female EAB captured among the three treatments were analyzed separately by fitting generalized linear mixed effect models, with block as a random factor, to the Poisson distribution (GLMER function, R Development Core Team 2013). Chi-square tests were used to determine if a significant proportion of the variation in capture of male and female EAB was attributable to treatment. Chi-square tests were considered significant at P=0.05 or less and, if significant, the means separated using the Tukey's contrast option in the GLHT function (R Development Core Team 2013); raw data are presented as means±standard error.

adult EAB = test: Two-choice Y-tube olfactometer bioassay; assay type: in vivo, Agrilus planipennis; details: 1 μg stimulus
Experimental: A Y-tube olfactometer (Analytical Research Systems Inc, Micanopy, Fla., USA) was used to test for short-range attraction of adult EAB to the lactones. […] Each arm was connected to a cylinder that contained the stimulus. Charcoal-filtered air was passed into each arm at a flow rate of 1.2 L/min. Treatments were 1 μg each of (3Z)-lactone, (3E)-lactone, and dodecan-12-olide. Each stimulus was diluted in dichloromethane, placed on a strip of filter paper, and given 1 min for the solvent to evaporate before being placed in the olfactometer. A filter paper with only solvent (control) was placed in the other arm of the olfactometer. The apparatus was rinsed with acetone after each treatment, and the arm attached to the test stimulus was randomized between replicates. For each trial, a single EAB (male or female) was given 10 min to choose between the two stimuli. A choice was recorded when the beetle passed a “finish line”, 7 cm beyond the branching point of each arm. […] Beetles were 8-14 d old, and 18-23 beetles were used per treatment.
as §1

EAB = test: Field trapping studies, dark green sticky prism traps co-baited with (3Z)-hexenol; assay type: in vivo, Agrilus planipennis
Experimental: Three trapping experiments were conducted to test the effects of (3Z)-lactone and dodecan-12-olide on mean captures of EAB on dark green sticky prism traps using protocols discussed by Francese et al. in 2010 (Francese J A, Crook D J, Fraser I, Lance D A, A. J. Sawyer A J, Mastro V C (2010a) Optimization of trap color for the emerald ash borer, Agrilus planipennis (Coleoptera: Buprestidae). J Econ Entomol 103: 1235-1241) co-baited with (3Z)-hexenol. Urban street trees were used: trees were 20-40 cm in diameter, and 10-16 m in height. […] Dark green prism sticky traps (0.30×25.00×58.75 cm) (Synergy Semiochemicals Corp., Burnaby, British Columbia) were used in all field trials. Traps were spaced˜25 m apart, and lure treatments replicated in a randomized complete block design. Traps were deployed using either a limb hook over a lower to mid-canopy branch or a single rope over a mid-canopy branch. In both years, traps were checked every 2 wk and all EAB were collected, counted, and sexed.
Traps were baited with one of three treatments: 1) (3Z)-hexenol alone; 2) 3.0 mg dose of (3Z)-lactone+(3Z)-hexenol; or 3) dodecan-12-olide+(3Z)-hexenol. The dodecan-12-olide dose was 3.0 mg or 5.0 mg. A higher dose of the analog was used to attempt to increase its effect on captures of EAB relative to the (3Z)-lactone. (3Z)-Lactone and the analog were each loaded onto rubber septa lures (Wheaton Scientific, Millville, N.J.). (3Z)-Hexenol lures were obtained from Synergy Semiochemicals. […] These values were determined as in Silk et al. 2011, and 50-100 mg/d (by weight loss), respectively, at 25° C. […]
For the EAG results, male and female EAG responses were submitted to analysis of variance (ANOVA) and mean responses to each of the tested compounds separated using Tukey's test (P<0.05). […] Finally, in the trapping study, numbers of male and female EAB captured among the three treatments were analyzed separately by fitting generalized linear mixed effect models, with block as a random factor, to the Poisson distribution (GLMER function, R Development Core Team 2013). […]

For `CC/C=C\CCO` [(3Z)-hexenol, reference compound], the “release rate of lure” value (Release rate of lures; by weight loss) was 50000 to 100000 µg/day.

With `O=C1C/C=C\CCCCCCCCO1` [(3Z)-lactone, (3Z)-dodecen-12-olide, reference compound] the “electroantennogram activity with male or female EABs” value (shortened to “electroantennogram activity”) [1] was “active”.

With `O=C1C/C=C/CCCCCCCCO1` [(3E)-lactone, (3E)-dodecen-12-olide, reference compound] the “proportion of the beetles that chose the stimulus arm” value (adult EAB; about 25% chose the control, no-choice beetles excluded, sex not given) was “about 75%” and the “electroantennogram activity” value [1] was “active”.

With `O=C1/C=C/CCCCCCCCCO1` [2E-dodecan-12-olide] the “electroantennogram activity” value [1] was “not significantly different from the controls”.

For `O=C1CCCCCCCCCCCO1` [dodecan-12-olide], the “females captured vs the other two treatments” value (EAB; FIG. 7a, 3 mg per lure, co-baited with (3Z)-hexenol) was “significantly more females were captured”, the “females captured vs (3Z)-hexenol alone” value (EAB; FIG. 7b, dodecan-12-olide 5 mg, (3Z)-lactone 3 mg per lure, P<0.01) was “more females were captured” and the “activity relative to the natural (3Z)-lactone under comparable conditions” value (EAB; field trial, 3 mg per lure, male captures) was “about 85%”. The “attraction of female EAB to stimulus vs solvent control” value (adult EAB; females, 10 min choice, chi-square vs 1:1, FIG. 6) was “attracted”, the “attraction of male EAB to stimulus vs solvent control” value (adult EAB; males, 10 min choice, chi-square vs 1:1, FIG. 5) was “attracted” and the “release rate of lure” value (Release rate of lures; 3.0 mg on rubber septa lure) was ~60 µg/day. The “release rate of lure” value (Release rate of lures; 5.0 mg on rubber septa lure) was ~80 µg/day, the “mean EAG responses of male and female EAB antennae” value ([1]; 1 μg source concentration, vs solvent control (dichloromethane), responses to the three compounds not significantly different from each other (Tukey's), FIG. 4) was “significantly greater than those to the solvent control” and the “electroantennogram activity” value [1] was “comparable to the corresponding electroantennogram activity both the natural (3Z)-lactone and the (3E)-lactone analog”.

With `O=C1CCCCCCCCCCCCCCO1` [pentadecan-15-olide, reference compound] the “electroantennogram activity” value [1] was “not significantly different from the controls”.
